Measured values from US20260297042A1, “BIARYLAMIDE DERIVATIVES AND THEIR USE AS PKMYT1 INHIBITORS” (CANCER RESEARCH TECHNOLOGY LIMITED, priority 2023, published 2026).

Key:
OVCAR 3 cells = test: Cancer cell line proliferation assay, ATP-based cell viability (Cell Titre Glow), OVCAR 3 (CCNE1-amplified); conditions: KYSE30 (normal CCNE1) GI50 vs. OVCAR 3 (CCNE1-amplified) GI50
Outline: (§1)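 CellTiter-Glo luminescence endpoint; PKMYT1 inhibitor exposure; GI50 = conc. for 50% growth inhibition, curve-fitted.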

WEE1 = molecular target: T1, WEE1 (Homo sapiens, UniProt P30291); test: Selectivity versus WEE1 assay (ADP-Glo enzymatic assay); format: biochemical; conditions: for IC50: WEE1 15 nM, ADP-Glo, banded values; for PKMYT1 vs. WEE1 selectivity: fold difference in selectivity for PKMYT1 over WEE1, banded
T1 construct: purchased Thermo Fisher PR7373A
Outline: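 Kinase at 15 nM final in 50 mM HEPES pH 7.5, 10 mM MgCl2, 1 mM EGTA, 0.01% Brij-35, 1% DMSO was started with 30 µM ATP and run 60 min at 26° C. ADP formed was read by ADP-Glo luminescence; IC50 came from dose-response curves.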

KYSE-30 cells = test: Cancer cell line proliferation assay, ATP-based cell viability (Cell Titre Glow), KYSE-30 (normal CCNE1); conditions: Homo sapiens, KYSE-30 cells (normal CCNE1), concentration that achieves 50% cell growth proliferation inhibition, read-out: KYSE30 Gl50
Outline: as §1

[1] = molecular target: T2, Cellular PKMYT1 Biomarker CDK1 pT14 (Homo sapiens, UniProt Q99640); test: Inhibition of cellular PKMYT1 biomarker CDK1 pT14 in OVCAR 3 cells (immunoblot); format: cell-based; conditions: 20 hours incubation
T2 construct: read-out CDK1 phospho-T14 immunoblot
T2 sequence (Q99640 1-499): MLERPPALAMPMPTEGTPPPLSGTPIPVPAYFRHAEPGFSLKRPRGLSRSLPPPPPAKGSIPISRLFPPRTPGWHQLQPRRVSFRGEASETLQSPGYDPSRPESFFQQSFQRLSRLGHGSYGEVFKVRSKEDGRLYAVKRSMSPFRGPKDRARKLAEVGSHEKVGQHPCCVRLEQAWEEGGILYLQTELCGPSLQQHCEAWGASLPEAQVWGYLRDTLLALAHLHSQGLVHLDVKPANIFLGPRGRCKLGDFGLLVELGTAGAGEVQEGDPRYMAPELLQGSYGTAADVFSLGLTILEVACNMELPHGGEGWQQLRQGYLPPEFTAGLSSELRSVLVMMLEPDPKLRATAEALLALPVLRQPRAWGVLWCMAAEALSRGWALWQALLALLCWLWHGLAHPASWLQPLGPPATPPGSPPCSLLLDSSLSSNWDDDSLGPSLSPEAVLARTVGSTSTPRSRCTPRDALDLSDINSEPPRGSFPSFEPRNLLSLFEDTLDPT
Outline: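 Confluent OVCAR 3 cells treated with a compound concentration range for 20 h at 37 °C. Lysates analysed by automated capillary immunoblot for CDK1 phospho-T14, with vinculin, fluorescence detection; IC50 by regression.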

Human PKMYT1 = molecular target: T3, Human PKMYT1 (Homo sapiens, UniProt Q99640); test: PKMYT1 biochemical ADP-Glo enzymatic assay; conditions: PKMYT1 kinase domain 15 nM; ADP-Glo; banded values
T3 construct: Human PKMYT1 75-362 was cloned as a TEV cleavable 6xHis fusion; 6xHis (TEV cleavable) (cleaved yes); made in house; host or cells: bacterial cells
T3 sequence (Q99640 75-362): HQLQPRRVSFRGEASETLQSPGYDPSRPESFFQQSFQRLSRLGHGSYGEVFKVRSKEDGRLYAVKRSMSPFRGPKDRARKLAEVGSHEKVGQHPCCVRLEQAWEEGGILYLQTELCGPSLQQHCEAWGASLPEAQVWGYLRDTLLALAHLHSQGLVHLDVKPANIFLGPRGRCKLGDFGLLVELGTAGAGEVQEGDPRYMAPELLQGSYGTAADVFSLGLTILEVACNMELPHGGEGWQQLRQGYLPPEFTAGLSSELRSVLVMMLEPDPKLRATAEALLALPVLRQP
Outline: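 Intrinsic ATPase activity of E. coli-expressed, tag-cleaved human PKMYT1 kinase domain (75-362), 15 nM, with 500 µM ATP in HEPES pH 7.5/MgCl2/EGTA/Brij-35, 1% DMSO, 60 min at 26 °C. ADP formed was read by ADP-Glo Max luminescence; IC50 from 10-point, 3-fold dilution curves.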

T1 sequence (P30291 whole entry): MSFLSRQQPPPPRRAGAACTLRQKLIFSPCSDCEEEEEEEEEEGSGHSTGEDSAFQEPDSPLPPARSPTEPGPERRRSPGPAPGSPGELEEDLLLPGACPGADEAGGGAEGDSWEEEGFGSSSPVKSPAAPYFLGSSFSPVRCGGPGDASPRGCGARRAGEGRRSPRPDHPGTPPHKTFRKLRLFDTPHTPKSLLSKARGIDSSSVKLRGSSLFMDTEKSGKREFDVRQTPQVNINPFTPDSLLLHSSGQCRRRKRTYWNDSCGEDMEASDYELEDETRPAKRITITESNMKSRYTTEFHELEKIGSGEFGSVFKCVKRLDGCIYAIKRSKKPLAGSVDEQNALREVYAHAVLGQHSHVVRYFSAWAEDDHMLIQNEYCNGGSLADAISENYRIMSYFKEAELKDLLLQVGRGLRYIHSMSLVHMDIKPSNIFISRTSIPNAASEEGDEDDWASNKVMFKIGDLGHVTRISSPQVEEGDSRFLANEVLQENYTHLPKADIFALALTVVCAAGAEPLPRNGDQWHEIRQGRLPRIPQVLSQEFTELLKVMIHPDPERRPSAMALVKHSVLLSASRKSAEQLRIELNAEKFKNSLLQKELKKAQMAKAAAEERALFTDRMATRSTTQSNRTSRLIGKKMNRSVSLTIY

| IC50 (WEE1) [nM] | PKMYT1 vs. WEE1 selectivity (WEE1) | IC50 [1] [nM] | IC50 (Human PKMYT1) [nM] | SMILES | Selectivity ratio KYSE30 Gl50 vs. OVCAR3 Gl50 (OVCAR 3 cells) | GI50 (KYSE-30 cells) [nM] |
| --- | --- | --- | --- | --- | --- | --- |
| 1000 to 11000 | X (100-<1000 fold) | < 100 | < 50 | Cc1cccc(Nc2ncc(C(=O)Nc3c(C)ccc(O)c3C)s2)n1 [BAA-407, N-(3-hydroxy-2,6-dimethylphenyl)-2-((6-methylpyridin-2-yl)amino)thiazole-5-carboxamide] | Y (>20 fold) | > 5000 |
| > 11000 | Y (1000-5000 fold) | < 100 | < 50 | Cc1ccc(F)c(Nc2ncc(C(=O)Nc3c(C)ccc(O)c3C)s2)n1 [BAA-420, 2-((3-fluoro-6-methylpyridin-2-yl)amino)-N-(3-hydroxy-2,6-dimethylphenyl)thiazole-5-carboxamide] | Y (>20 fold) | 500 to 5000 |
| > 11000 | X (100-<1000 fold) | < 100 | < 50 | Cc1ccc(O)c(C)c1NC(=O)c1cnc(Nc2ccccn2)s1 [BAA-421, N-(3-hydroxy-2,6-dimethylphenyl)-2-(pyridin-2-ylamino)thiazole-5-carboxamide] | Y (>20 fold) | 500 to 5000 |

More lines, now with the values behind:

| SMILES | IC50 (WEE1) [nM] | PKMYT1 vs. WEE1 selectivity (WEE1) | IC50 [1] [nM] | IC50 (Human PKMYT1) [nM] | Selectivity ratio KYSE30 Gl50 vs. OVCAR3 Gl50 (OVCAR 3 cells) | GI50 (KYSE-30 cells) [nM] |
| --- | --- | --- | --- | --- | --- | --- |
| Cc1ccc(O)c(C)c1NC(=O)c1cnc(Nc2cccc(C3CC3)n2)s1 [BAA-409, 2-((6-cyclopropylpyridin-2-yl)amino)-N-(3-hydroxy-2,6-dimethylphenyl)thiazole-5-carboxamide] | 1000 to 11000 | X (100-<1000 fold) | < 100 | < 50 | Y (>20 fold) | 500 to 5000 |
| Cc1ccc(O)c(C)c1NC(=O)c1cnc(Nc2nc(N3CCOCC3)ccc2Cl)s1 [BAA-410, 2-((3-chloro-6-morpholinopyridin-2-yl)amino)-N-(3-hydroxy-2,6-dimethylphenyl)thiazole-5-carboxamide] | 1000 to 11000 | X (100-<1000 fold) | < 100 | < 50 | Y (>20 fold) | 500 to 5000 |
| Cc1ccc(O)c(C)c1NC(=O)c1cnc(Nc2nc(N3CCN(C)CC3)ccc2Cl)s1 [BAA-414, 2-((3-chloro-6-(4-methylpiperazin-1-yl)pyridin-2-yl)amino)-N-(3-hydroxy-2,6-dimethylphenyl)thiazole-5-carboxamide] | 1000 to 11000 | X (100-<1000 fold) | < 100 | < 50 | Y (>20 fold) | 500 to 5000 |
| Cc1ccc(O)c(C)c1NC(=O)c1cnc(Nc2cccc(N(C)C)n2)s1 [BAA-417, 2-((6-(dimethylamino)pyridin-2-yl)amino)-N-(3-hydroxy-2,6-dimethylphenyl)thiazole-5-carboxamide] | > 11000 | X (100-<1000 fold) | 100 to 1000 | < 50 | Y (>20 fold) | 500 to 5000 |
| COc1ccnc(Nc2ncc(C(=O)Nc3c(C)ccc(O)c3C)s2)c1 [BAA-418, N-(3-hydroxy-2,6-dimethylphenyl)-2-((4-methoxypyridin-2-yl)amino)thiazole-5-carboxamide] | 1000 to 11000 | X (100-<1000 fold) | < 100 | < 50 | Y (>20 fold) | 500 to 5000 |
| Cc1cc(F)cnc1Nc1ncc(C(=O)Nc2c(C)ccc(O)c2C)s1 [BAA-419, 2-((5-fluoro-3-methylpyridin-2-yl)amino)-N-(3-hydroxy-2,6-dimethylphenyl)thiazole-5-carboxamide] | > 11000 | Y (1000-5000 fold) | 100 to 1000 | < 50 | Y (>20 fold) | > 5000 |
